Entries after “also recorded” stand apart in the source; their conditions may differ. Bridge positions count the residues as written; N and C are the ends. Square brackets hold non-standard residues; d marks the D form. Peptide text beside a SMILES is read from it. hArg = N=C(N)NCCCC[C@H](N)C(=O)O; Mpa = O=C(O)CCS
B1: rsCD154: bacterially expressed recombinant human soluble CD154 (108 a.a-261 a.a.), 18-kDa protein (protein)
chain: ENSFEMQKGDQNPQIAAHVISEASSKTTSVLQWAEKGYYTMSNNLVTLENGKQLTVKRQGLYYIYAQVTFCSNREASSQAPFIASLCLKSPGRFERILLRAANTHSSAKPCGQQSIHLGGVFELQPGASVFVNVTDPSQVSHGTGFTSFGLLKL

Assays:
platelets [1] = experiment: Release of sCD154 from stimulated platelets in platelet-rich plasma (ELISA); type: cell-based, human
Procedure: Platelet-rich plasma (PRP) was prepared from human donors by obtaining blood through a 19-gauge butterfly into PPACK anticoagulant (8.6 ml of 2.1 mM PPACK, Calbiochem, La Jolla, Calif.: final concentration 0.3 mM). Blood was aliquoted into 15 ml polypropylene tubes and centrifuged at 900 rpm for 20 minutes (160×g). The platelet rich plasma (PRP) was carefully removed and pooled in a new tube. Platelet counts were taken and recorded. Aliquots of PRP at 37° C. were then added to 1.5 ml microcentrifuge tubes containing various amounts of eptifibatide. To initiate aggregation, 20 μM ADP 4 μg/mL collagen or 5 μM TRAP6 was added and samples were rocked on a Nutator for 30 minutes at 37° C. The tubes were put on ice and immediately centrifuged at 15,000×g for 10 minutes at 4° C.
The platelet-poor plasma (PPP) supernatant was removed to new tubes and the levels of sCD154 in these samples were measured by ELISA. There was a time-dependent increase in sCD154 release when platelets were aggregated with either ADP or TRAP6.
In other experiments, various concentrations of eptifibatide, abciximab or tirofiban were added to PRP before the addition of TRAP. In the eptifibatide experiments, the release of βTG from platelet a granules was determined from PPP samples by ELISA. Inhibition of aggregation by GP IIb-IIIa antagonists was determined in PPACK-anticoagulated PRP by light-transmission aggregometry (Chrono-Log) as described in Phillips et al. (1995) J Exp. Med 182:33-40. To assess the effect of aspirin use on the release of sCD154 from platelets, PRP was obtained from 7 donors, incubated with a single concentration of GP IIb-IIIa inhibitor, and stimulated with 20 μmol/L ADP, 5 μmol/L TRAP or 4 μg/mL collagen for 30 minutes while rocking at 37° C. Resultant PPP was measured for sCD154. The same donors then took 325 mg of aspirin for 7 days. PRP was again collected and subjected to the same conditions, and the release of sCD154 was determined. A control reading (no addition of inhibitor) was taken with the agonist 0.5 mmol/L arachidonic acid in citrated PRP to ensure that the aspirin had been taken.

platelets [2] = experiment: as above; type: cell-based, human; details: unstirred, FIG. 12B
CD154−/− mice = experiment: Intravital microscopy thrombosis model of the mouse mesentery (FeCl3-injured arteriole); type: in vivo; details: single dose 26 μg/mouse, 5 to 10 minutes before arteriole injury
Procedure: The role of CD154 in thrombus formation was investigated using a model that compares wild type (WT) mice with CD154−/− mice that have impaired thrombosis. […] It was observed that the occlusion time is approximately twice as long in the CD 154−/− mouse as in wild type, apart from any other treatment effect.
In this example, the recombinant form of the soluble CD154 was infused into the CD154−/− mouse. Thrombus formation was evaluated using the model as described below.
To perform the investigation, the intravital microscopy thrombosis model of the mouse mesentery was used (Denis et al., PNAS, 95:9524-9, (1998)). The interactions of fluorescently-labeled platelets with a FeCl3-injured arteriolar vessel wall (shear rate ˜1300 s^−1) were analyzed. […]
Immediately after infusion of fluorescent platelets into mice of matching genotypes (4- to 5-weeks old C57BL6J and CD154−/−), animals were anesthetized with 2.5% tribromoethanol (0.15 mL/10 g). […] The shear rate (1000 to 1300 s^−1) was calculated using an optical Doppler velocimeter using known methods (see, e.g., Blood, November 2000). […]
Resting blood vessel was recorded for 2 minutes, then Ferric Chloride (30 μl of a 250-mM solution) was superfused, and video recording was resumed for another 40 minutes, or until full occlusion occurred and lasted for more than 10 seconds. […]

Molecule	Inhibition of sCD154 Release at >90% Platelet Aggregation Inhibition, % (platelets [1]; TRAP-stimulated platelets, release without GP IIb-IIIa inhibitor set at 100%, average and SD) [%]	release of sCD154 from platelets activated with ADP or TRAP (platelets [1]; inhibitor added prior to agonist, PPACK plasma)	Potentiation of sCD154 Release, % (platelets [1]; maximal potentiation, TRAP-stimulated platelets, release without inhibitor set at 100%, average and SD) [%]	sCD154 shedding from TRAP-activated platelets without aggregation (platelets [2])	thrombotic process (occlusion) in CD154−/− mice (CD154−/− mice)
N=C(N)NCCCC[C@@H]1NC(=O)CCSSC[C@@H](C(N)=O)NC(=O)[C@@H]2CCCN2C(=O)[C@H](Cc2c[nH]c3ccccc23)NC(=O)[C@H](CC(=O)O)NC(=O)CNC1=O [eptifibatide] ([Mpa][hArg]GDWPC-NH2; disulfide 1-7)	85 ± 6.3	blocked in a dose dependent manner; also recorded: inhibited	26 ± 10	inhibited	–
B1	–	–	–	–	reconstitute a normal thrombotic process

— patent US20040072750A1, “Compounds and methods for the modulation of CD154” (priority 2001, published 2004)
